Data published in PMC9996706, “A curcumin direct protein biosensor for cell‐free prototyping” (Engineering Biology, 2022).

Biological target: T1, EcCurA (E. coli curcumin reductase, double bond reductase) (Escherichia coli, UniProt P76113)
T1 construct: gene curA
T1 sequence (P76113 1-345): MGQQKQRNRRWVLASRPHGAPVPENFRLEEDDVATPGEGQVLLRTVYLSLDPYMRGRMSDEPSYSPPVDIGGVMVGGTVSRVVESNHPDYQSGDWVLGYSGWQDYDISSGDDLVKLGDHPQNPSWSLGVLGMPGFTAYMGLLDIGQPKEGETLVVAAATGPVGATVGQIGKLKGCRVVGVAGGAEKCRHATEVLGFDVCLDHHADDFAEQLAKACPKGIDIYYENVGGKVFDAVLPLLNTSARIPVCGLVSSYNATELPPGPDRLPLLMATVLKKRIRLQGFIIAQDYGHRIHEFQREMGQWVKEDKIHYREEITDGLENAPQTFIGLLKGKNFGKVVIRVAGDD
Assay: fluorescence titration
Format: binding

COc1cc(/C=C/C(=O)CC(=O)/C=C/c2ccc(O)c(OC)c2)ccc1O [curcumin]
Kd: 8.39 µM
